This is an account of results in PubChem BioAssay (NCI).

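Tested at 5 concentrations; 48 h exposure; 96-well plates; endpoints linearly interpolated, else capped at highest concentration. TGI: total growth inhibition.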 A value given as a limit tells only on which side of the number the result lay.

One assay relates to PC-3 prostate. In words: growth of human tumour cells (NCI), 48 h.
For `CSc1cc(Cl)c(C)cc1S(=O)(=O)NC(=O)NNc1ccc(Cl)cc1`, the TGI was above 100 µM.
Consider `O=c1c2cc3c(cc2[nH]c2ncccc12)OCO3`, for which the TGI is above 10 µM.
As for `Nc1c(-c2cccc3ccccc23)c2ccc([N+](=O)[O-])cc2c(=O)n1-c1nc2ccccc2s1`, the TGI is above 35.3 µM.
In turn, `CC1CC[C@@]2(OC1)OC1C[C@H]3[C@@H]4CC[C@H]5CC(OC6OC(CO)C(OC7OC(CO)C(O)C(O)C7OC7OC(CO)C(O)C(O)C7O)C(O)C6O)CCC5(C)[C@H]4CCC3(C)C1[C@@H]2C` (stereo not given in full) came in with a TGI of 1.52 µM.
`CC1(C)N=C(C(N)=O)c2ncn(CCCO)c2N1` returned a TGI above 100 µM.
Turning to `CN(C)CCCN1C(=S)N(CCCN(C)C)c2c3cc(O)ccc3nc3c([N+](=O)[O-])ccc1c23`, the TGI turned out to be 13.3 µM.

For another assay, the system named is K-562 leukemia. In words: growth of human tumour cells (NCI), 48 h.
The compound `CSc1cc(Cl)c(C)cc1S(=O)(=O)NC(=O)NNc1ccc(Cl)cc1` had a TGI above 100 µM.
On the same count and under the same terms, the value for `O=c1c2cc3c(cc2[nH]c2ncccc12)OCO3` was above 10 µM; that for `Nc1c(-c2cccc3ccccc23)c2ccc([N+](=O)[O-])cc2c(=O)n1-c1nc2ccccc2s1` was above 100 µM; that for `CC1CC[C@@]2(OC1)OC1C[C@H]3[C@@H]4CC[C@H]5CC(OC6OC(CO)C(OC7OC(CO)C(O)C(O)C7OC7OC(CO)C(O)C(O)C7O)C(O)C6O)CCC5(C)[C@H]4CCC3(C)C1[C@@H]2C` (stereo not given in full) was 9.01 µM.
Same read-out and setting: as for `CC1(C)N=C(C(N)=O)c2ncn(CCCO)c2N1`, the figure is above 100 µM; as for `CN(C)CCCN1C(=S)N(CCCN(C)C)c2c3cc(O)ccc3nc3c([N+](=O)[O-])ccc1c23`, above 33 µM.

A further assay relates to HT29 colon. Description: growth of human tumour cells (NCI), 48 h.
On to `CSc1cc(Cl)c(C)cc1S(=O)(=O)NC(=O)NNc1ccc(Cl)cc1`, for which the TGI is above 100 µM.
The compound `O=c1c2cc3c(cc2[nH]c2ncccc12)OCO3` showed a TGI above 10 µM.
Turning to `Nc1c(-c2cccc3ccccc23)c2ccc([N+](=O)[O-])cc2c(=O)n1-c1nc2ccccc2s1`, the TGI amounted to 19.9 µM.
On the same count and under the same terms, the value for `CC1CC[C@@]2(OC1)OC1C[C@H]3[C@@H]4CC[C@H]5CC(OC6OC(CO)C(OC7OC(CO)C(O)C(O)C7OC7OC(CO)C(O)C(O)C7O)C(O)C6O)CCC5(C)[C@H]4CCC3(C)C1[C@@H]2C` (stereo not given in full) was 1.86 µM; that for `CC1(C)N=C(C(N)=O)c2ncn(CCCO)c2N1` was above 100 µM.
In the case of `CN(C)CCCN1C(=S)N(CCCN(C)C)c2c3cc(O)ccc3nc3c([N+](=O)[O-])ccc1c23`, the TGI worked out at 6.31 µM.

Another assay has as its system 786-0 renal. Description: growth of human tumour cells (NCI), 48 h.
Take `CSc1cc(Cl)c(C)cc1S(=O)(=O)NC(=O)NNc1ccc(Cl)cc1`: the TGI was above 100 µM.
Turning to `O=c1c2cc3c(cc2[nH]c2ncccc12)OCO3`, the TGI was above 10 µM.
The same measure, in the same setting: as for `Nc1c(-c2cccc3ccccc23)c2ccc([N+](=O)[O-])cc2c(=O)n1-c1nc2ccccc2s1`, the figure is above 36.2 µM; as for `CC1CC[C@@]2(OC1)OC1C[C@H]3[C@@H]4CC[C@H]5CC(OC6OC(CO)C(OC7OC(CO)C(O)C(O)C7OC7OC(CO)C(O)C(O)C7O)C(O)C6O)CCC5(C)[C@H]4CCC3(C)C1[C@@H]2C` (stereo not given in full), 5.44 µM; as for `CC1(C)N=C(C(N)=O)c2ncn(CCCO)c2N1`, above 100 µM.
For `CN(C)CCCN1C(=S)N(CCCN(C)C)c2c3cc(O)ccc3nc3c([N+](=O)[O-])ccc1c23`, the TGI worked out at 8.55 µM.

For a further assay, the system named is SNB-75 CNS. In words: growth of human tumour cells (NCI), 48 h.
`CSc1cc(Cl)c(C)cc1S(=O)(=O)NC(=O)NNc1ccc(Cl)cc1` yielded a TGI above 100 µM.
The same measure, in the same setting: the value for `O=c1c2cc3c(cc2[nH]c2ncccc12)OCO3` was above 10 µM; that for `Nc1c(-c2cccc3ccccc23)c2ccc([N+](=O)[O-])cc2c(=O)n1-c1nc2ccccc2s1` was 9.65 µM.
The compound `CC1CC[C@@]2(OC1)OC1C[C@H]3[C@@H]4CC[C@H]5CC(OC6OC(CO)C(OC7OC(CO)C(O)C(O)C7OC7OC(CO)C(O)C(O)C7O)C(O)C6O)CCC5(C)[C@H]4CCC3(C)C1[C@@H]2C` (stereo not given in full) displayed a TGI of 4.81 µM.
The compound `CC1(C)N=C(C(N)=O)c2ncn(CCCO)c2N1` yielded a TGI above 100 µM.
Same read-out and setting: as for `CN(C)CCCN1C(=S)N(CCCN(C)C)c2c3cc(O)ccc3nc3c([N+](=O)[O-])ccc1c23`, the figure is 16.9 µM.

In a further assay the test system is SR leukemia. In words: growth of human tumour cells (NCI), 48 h.
`CSc1cc(Cl)c(C)cc1S(=O)(=O)NC(=O)NNc1ccc(Cl)cc1` showed a TGI above 100 µM.
Same read-out and setting: as for `O=c1c2cc3c(cc2[nH]c2ncccc12)OCO3`, the figure is above 10 µM.
Same read-out and setting: as for `Nc1c(-c2cccc3ccccc23)c2ccc([N+](=O)[O-])cc2c(=O)n1-c1nc2ccccc2s1`, the figure is above 100 µM; as for `CC1CC[C@@]2(OC1)OC1C[C@H]3[C@@H]4CC[C@H]5CC(OC6OC(CO)C(OC7OC(CO)C(O)C(O)C7OC7OC(CO)C(O)C(O)C7O)C(O)C6O)CCC5(C)[C@H]4CCC3(C)C1[C@@H]2C` (stereo not given in full), 7.95 µM.
Still for that read-out and setting: as for `CC1(C)N=C(C(N)=O)c2ncn(CCCO)c2N1`, the figure is above 100 µM; as for `CN(C)CCCN1C(=S)N(CCCN(C)C)c2c3cc(O)ccc3nc3c([N+](=O)[O-])ccc1c23`, above 22.5 µM.

Another assay concerns SF-539 CNS. In words: growth of human tumour cells (NCI), 48 h.
`CSc1cc(Cl)c(C)cc1S(=O)(=O)NC(=O)NNc1ccc(Cl)cc1`: the TGI is above 100 µM.
Turning to `O=c1c2cc3c(cc2[nH]c2ncccc12)OCO3`, the TGI is above 10 µM.
The same measure, in the same setting: as for `Nc1c(-c2cccc3ccccc23)c2ccc([N+](=O)[O-])cc2c(=O)n1-c1nc2ccccc2s1`, the figure is 14.8 µM; as for `CC1CC[C@@]2(OC1)OC1C[C@H]3[C@@H]4CC[C@H]5CC(OC6OC(CO)C(OC7OC(CO)C(O)C(O)C7OC7OC(CO)C(O)C(O)C7O)C(O)C6O)CCC5(C)[C@H]4CCC3(C)C1[C@@H]2C` (stereo not given in full), 2.92 µM; as for `CC1(C)N=C(C(N)=O)c2ncn(CCCO)c2N1`, above 100 µM.
Same read-out and setting: as for `CN(C)CCCN1C(=S)N(CCCN(C)C)c2c3cc(O)ccc3nc3c([N+](=O)[O-])ccc1c23`, the figure is 17.1 µM.

For a further assay, the system named is A498 renal. Description: growth of human tumour cells (NCI), 48 h.
As to `CSc1cc(Cl)c(C)cc1S(=O)(=O)NC(=O)NNc1ccc(Cl)cc1`, the TGI was above 100 µM.
The same measure, in the same setting: the value for `O=c1c2cc3c(cc2[nH]c2ncccc12)OCO3` was above 10 µM.
On the same count and under the same terms, the value for `Nc1c(-c2cccc3ccccc23)c2ccc([N+](=O)[O-])cc2c(=O)n1-c1nc2ccccc2s1` was above 100 µM.
With `CC1CC[C@@]2(OC1)OC1C[C@H]3[C@@H]4CC[C@H]5CC(OC6OC(CO)C(OC7OC(CO)C(O)C(O)C7OC7OC(CO)C(O)C(O)C7O)C(O)C6O)CCC5(C)[C@H]4CCC3(C)C1[C@@H]2C` (stereo not given in full), the TGI came to 4.08 µM.
The same measure, in the same setting: as for `CC1(C)N=C(C(N)=O)c2ncn(CCCO)c2N1`, the figure is above 100 µM; as for `CN(C)CCCN1C(=S)N(CCCN(C)C)c2c3cc(O)ccc3nc3c([N+](=O)[O-])ccc1c23`, 5.47 µM.

The test system of another assay is MALME-3M melanoma. Description: growth of human tumour cells (NCI), 48 h.
`CSc1cc(Cl)c(C)cc1S(=O)(=O)NC(=O)NNc1ccc(Cl)cc1` had a TGI above 100 µM.
`O=c1c2cc3c(cc2[nH]c2ncccc12)OCO3` returned a TGI above 10 µM.
`Nc1c(-c2cccc3ccccc23)c2ccc([N+](=O)[O-])cc2c(=O)n1-c1nc2ccccc2s1` showed a TGI of 13.4 µM.
Same read-out and setting: the value for `CC1CC[C@@]2(OC1)OC1C[C@H]3[C@@H]4CC[C@H]5CC(OC6OC(CO)C(OC7OC(CO)C(O)C(O)C7OC7OC(CO)C(O)C(O)C7O)C(O)C6O)CCC5(C)[C@H]4CCC3(C)C1[C@@H]2C` (stereo not given in full) was 12.5 µM.
With `CC1(C)N=C(C(N)=O)c2ncn(CCCO)c2N1`, the TGI is above 100 µM.
`CN(C)CCCN1C(=S)N(CCCN(C)C)c2c3cc(O)ccc3nc3c([N+](=O)[O-])ccc1c23` returned a TGI of 22.2 µM.

The next assay relates to HCT-15 colon. In words: growth of human tumour cells (NCI), 48 h.
Turning to `CSc1cc(Cl)c(C)cc1S(=O)(=O)NC(=O)NNc1ccc(Cl)cc1`, the TGI was above 100 µM.
In the case of `O=c1c2cc3c(cc2[nH]c2ncccc12)OCO3`, the TGI was above 10 µM.
The compound `Nc1c(-c2cccc3ccccc23)c2ccc([N+](=O)[O-])cc2c(=O)n1-c1nc2ccccc2s1` displayed a TGI above 48 µM.
Still for that read-out and setting: the value for `CC1CC[C@@]2(OC1)OC1C[C@H]3[C@@H]4CC[C@H]5CC(OC6OC(CO)C(OC7OC(CO)C(O)C(O)C7OC7OC(CO)C(O)C(O)C7O)C(O)C6O)CCC5(C)[C@H]4CCC3(C)C1[C@@H]2C` (stereo not given in full) was 20.3 µM.
In turn, `CC1(C)N=C(C(N)=O)c2ncn(CCCO)c2N1` came in with a TGI above 100 µM.
Still for that read-out and setting: as for `CN(C)CCCN1C(=S)N(CCCN(C)C)c2c3cc(O)ccc3nc3c([N+](=O)[O-])ccc1c23`, the figure is 12.6 µM.
